What was measured:
A549 cell line = experiment: Viability of A549 cells, XTT-based assay, with or without TRAIL; assay type: cell-based, human
Protocol: FIG. 4: C12 sensitizes long cancer cell line A549 to TRAIL. (A) Viability of cells was examined after 24-hour incubation in media containing TRAIL (50 ng/ml), compound (C12) (1 μM), compound (C12R) (25 μM) or the indicated combination of TRAIL (T) with (C12) or (C12R). The chemical structures of (C12) and its stereoisomer (C12R) are shown on the right. (B) Viability of cells was examined after 24-hour incubation in media, containing TRAIL (50 ng/ml) and the indicated doses of C12. Viable cells remaining after the treatment were determined as a function of mitochondrial activity of living cells according to XTT-based toxicology assay kit (Sigma) and are shown as a percentage of viable untreated cells.
To test this hypothesis, we examined the effect of C12 in vitro on the activity of TRAIL against A549 cell line derived from a cancer sample of the human lung.
(§1) Cytotoxicity was determined by using the XTT-based toxicology assay kit (Sigma, St. Louis, Miss.) in accordance with the manufacturer's instructions. For some experiments, to confirm the apoptotic nature of toxicity, cells were analyzed using protocols and instructions of the Annexin V-FITC apoptosis detection kit (Biovision, Mountain View, Calif.). In addition, caspase 3, 8 and 9 activities were determined by colorimetric assays (R&D System), and the data are expressed as fold increases compared to the values of untreated or control-treated cells (n=5).

sXBP1 (UPR) = experiment: RT-PCR assay of spliced XBP1 mRNA (sXBP1) in macrophages; assay type: cell-based, mouse; details: FIG. 1D and 1E
Text: FIG. 1: C12 induces the UPR in mammalian cells. (A and B). Comparison of the macrophage responsiveness to P. aeruginosa (P.a.), S. typhimurium (S.t), and S. aureus (S.a.). RT-PCR assay of XBP1 (A) and Western blot analysis (B) of p38, its phosphorylated form (p-p38) as well as phosphorylated forms of PERK (p-PERK) and eIF2α (p-eIF2α) in cell extracts after treatment with bacteria are shown. (C) Macrophages were stimulated with P. aeruginosa wild type (wt) or lasI mutant (ΔlasI), and cell extracts (total RNA or total protein) were prepared and analyzed as in (A and B). […] (F) Total RNA was prepared from lung of mice after inoculation of vehicle (-) or (C12) and analyzed in (D). […]
Among key biochemical signatures of the multicomponent ER stress pathway, known as the unfolded protein response (UPR), are the phosphorylation of the α-subunit of eukaryotic translation initiation factor-2 (eIF2α) and activation of the transcription factor XBP1/Hac1 (X-box binding protein-1 in metazoans and homologous to ATF/CREB in yeast, respectively) ^11. […] To initiate our studies, we exposed bone marrow-derived macrophages (BMDM) to these bacteria, and macrophage responsiveness was analyzed for biochemical markers of the UPR and the phosphorylation of the mitogen-activated protein kinase p38, as a common marker of TLR pathways. […]

[1] = tested on: primary human hepatocytes; experiment: Viability and apoptosis of primary human hepatocytes from normal donors; assay type: cell-based
Protocol: FIG. 8: Safety and pro-apoptotic. activity of (C12). Cells were incubated with TRAIL, (C12), […] (Bor) or a combination of TRAIL and (C12) or Bor as indicated, and cell viability (top panels) or the cleavage of PARP (bottom panels) was determined. (A) Lung cancer cell line A549. (B) Primary human hepatocytes from normal donor.
Therefore, to assess a potential utility of C12 for anti-cancer therapy, we compared the effects of these two compounds—(C12) and bartezomid (Bor)—on TRAIL-mediated apoptosis in cancerous A549 cells and primary human hepatocytes.
Cancer and normal cell culture. Lung cancer cell line A549 and colon cancer cell line HT29 were purchased from ATCC. Breast cancer cell line MDA-MB-468 was received from J. C. Reed (The Burnham Institute, La Jolla, Calif.). Cell lines were maintained in growth medium (GM): DMEM medium (4.5 g/l glucose) supplemented with 10% FBS (HyClone, Logan, Utah), L-glutamine, penicillin/streptomycin and nonessential ammo acids (Invitrogen, Carlsbad, Calif.). Normal human bronchial epithelial (NHBE) cells and normal human mammary epithelial (NHME) cells were obtained from Cambrex (East Rutherford, N.J.) and cultured as recommended by the manufacturer. Normal human colon smooth muscle cells were obtained from ScienCell Research Lab (San Diego, Calif.) and cultured as recommended by the manufacturer. Primary cultures of human hepatocytes (freshly plated; not cryopreserved) and culture medium were obtained from Celsis In Vitro Technologies (Baltimore, Md.). Upon receipt of the cells, the medium was gently aspirated from each well and replenished with InVitroGRO HI medium supplemented with Torpedo Antibiotic Mix (Celsis), and the plates were kept in a 5% CO2, at 37° C. in an incubator at saturating humidity. After 2-4 h, cells were stimulated as described in the text and FIG. legends.
as §1

cancerous cells = experiment: Sensitization of cancerous cells to TRAIL-mediated apoptosis (SAR panel); assay type: cell-based; details: a number of cancerous cells
Text: Since (C12) is a prototypic member of the 3-oxo-AHL family, the structure-activity-relation (SAR) investigations were warranted to determine generic structural features of AHL, which are required for a cancer-stop and cancer preventing activity as well as for activation of the UPR. To address this questions, a set of AHLs and their analogs were synthesized (see List of AHLs and analogs), and the biological activity of ail compounds were examined on a panel of cancerous and normal cells. The prototypic examples of biochemical data for the selected analogs are shown in FIG. 9 and FIG. 10, whereas Table 2 summarizes the SAR studies for all compounds.
(§2) Cell stimulation. In all experiments, BMDM were stimulated with LPS (100 ng/ml), AHL (10-25 μM; usually BMDM and primary macrophages were stimulated by 25 μM of C12) or their combination as indicated in the figure legends. If not indicated, cancer and normal cells were stimulated with 40 ng/ml of TNFα, 20 ng/ml TRAIL and 10 μM (in case of cancer cells) or 25 μM (in case of normal cells) of AHL.

cancer and normal cells = experiment: XTT-based viability of cancer and normal cells grown 18 h (FIG. 12); assay type: cell-based; details: TRAIL alone or the same doses of C12 without TRAIL
Protocol: FIG. 12. (C12) promotes the TRAIL-mediated killing of cancer cells, a), c) Western blot analysis of PARP cleavage in cancer or normal cells treated for 3 h with TRAIL, (C12) or a combination of both, as indicated, b), d) XTT-based assay monitoring the viability of cancer and normal cells grown for 18 h in media containing TRAIL and the indicated doses of (C12). Cell survival was ˜100% in control samples (untreated cells) as well as in samples incubated with TRAIL alone or the same doses of (C12) without TRAIL.
Cancer and normal cell culture. Lung cancer cell line A549 and colon cancer cell line HT29 were purchased from ATCC. Breast cancer cell line MDA-MB-468 was received from J. C. Reed (The Burnham Institute, La Jolla, Calif.). […]
as §1

[2] = tested on: TRAIL-treated lung cancer cells; experiment: Toxicity against TRAIL-treated lung cancer cells; assay type: cell-based
Protocol: Considering the potential inherent pharmacokinetic liabilities associated with C12, a small series of compound (C12) analogues was tested against bone marrow-derived macrophages and TRAIL-treated lung cancer cells.
Cancer and normal cell culture. Lung cancer cell line A549 and colon cancer cell line HT29 were purchased from ATCC. Breast cancer cell line MDA-MB-468 was received from J. C. Reed (The Burnham Institute, La Jolla, Calif.). Cell lines were maintained in growth medium (GM): DMEM medium (4.5 g/l glucose) supplemented with 10% FBS (HyClone, Logan, Utah), L-glutamine, penicillin/streptomycin and nonessential ammo acids (Invitrogen, Carlsbad, Calif.). […]
as §1

[3] = tested on: bone marrow-derived macrophages (BMDM); experiment: Responses of bone marrow-derived macrophages to AHLs (toxicity, Western blot); assay type: cell-based, mouse
Protocol: FIG. 13. AHL-mediated inhibition of inflammation-induced NF-κB signaling is sufficient for rendering tumors susceptible to TRAIL-induced apoptosis. a) Western blot analysis of PARP cleavage in cancer cells stimulated for 3 h with TRAIL or its combination with different AHLs as indicated, b) Western blot analysis of PARP cleavage as well as phosphorylated forms of eIF2α and p38 in extracts from bone marrow-derived macrophages (BMDM) stimulated with (C12) or (3-N2), i.e., (S)-(3-N2), as indicated, c) Western blot analysis of PARP cleavage and temporal profiles of IκBα expression in BMDM extracts prepared after treatment with LPS or its combination with (C12) or (3-N2). d) Inhibitory effect of (C12) and its derivatives on LPS-induced TNF production in BMDM. e) Lung cancer cells were exposed to (3-N2) (10 μM), TRAIL (0.5 ng/ml), TNF (20 ng/ml) or their combinations as indicated. After 2 h, cell lysates were prepared and analyzed by Western blot for PARP cleavage, IκBα and actin.
Mice, bone marrow-derived macrophages and other cell culture, C57BL/6 mice were purchased from the Jackson Laboratory (Bar Harbor, Me.). Bone marrow-derived macrophages (BMDM) and murine embryonic fibroblasts (MEF) were prepared by using standard protocols that were approved by the TSRI Animal Care and Use Committee. L929/NCTC clone 929 (connective tissue, mouse) cell lines were purchased from ATCC (Manassas, Va.). MEFs and L929 cell line were maintained in GM (see above). BMDM were cultured in 70% GM and 30% L929 conditioned medium. In general, cells (˜60-70% confluence) were incubated in fresh medium for 12-14 h before stimulation.
Antibodies and Western blot analysis. Anti-eIF2α, phospho-eIF2α[…](p-eIF2α), p38, p-p38 (Thr180/Tyr132), p-RelA (Ser536), p-I κB ? 32/36), PARP 20 antibodies were purchased from Cell Signaling; anti-RelA, I κB α, IκBβ were from Santa Cruz Biotechnology. Cellular extracts were prepared and analyzed by Western blot assay as previously described.^E3
as §2

CCCCCCCCCC(=O)CC(=O)N[C@@H]1CCOC1=O [Compound 2]
cell growth and viability, compound alone (A549 cell line; C12 1 μM or 25 μM, C12R 25 μM, no TRAIL): practically unchanged
cell growth and viability, combination with TRAIL (A549 cell line; TRAIL (50 ng/ml) and C12R (25 μM)): practically unchanged
induction of sXBP1 / activation of the UPR (sXBP1 (UPR)): ineffective

CC(C)C[C@H](NC(=O)[C@H](Cc1ccccc1)NC(=O)c1cnccn1)B(O)O [Bor, bortezomib, reference compound]
sensitivity of A549 cells to TRAIL in the presence of compound (A549 cell line; FIG. 8A): comparable increase in sensitivity
toxicity and apoptosis in hepatocytes in the presence of TRAIL ([1]; FIG. 8B): substantially enhanced
toxicity toward hepatocytes, drug alone ([1]; FIG. 8B): relatively low levels of toxicity

[N-]=[N+]=NCCCCCCCCCC1(CC(=O)N[C@H]2CCOC2=O)N=N1 [Compound 16]
sensitization of cancerous cells to TRAIL-mediated apoptosis (cancerous cells): strongly sensitize

TRAIL: recombinant human tumor necrosis factor-related apoptosis-inducing ligand, purchased from R&D System
viability and growth, TRAIL alone (A549 cell line; TRAIL 50 ng/ml): did not significantly affect
Cell survival (cancer and normal cells): ~100%
viability of normal human hepatocytes, TRAIL alone ([1]; FIG. 8B): unchanged

[N-]=[N+]=NCCCCCCCCCC(=O)CC(=O)N[C@H]1CCOC1=O [Compound 13]
sensitization of cancerous cells to TRAIL-mediated apoptosis (cancerous cells): strongly sensitize

CCCCCCCCCC1(CC(=O)N[C@H]2CCOC2=O)N=N1 [Compound 15]
sensitization of cancerous cells to TRAIL-mediated apoptosis (cancerous cells): strongly sensitize
synergistic effects on TRAIL-induced apoptosis in cancer cells ([2]; compared with bortezomib): comparable with those for an anti-cancer agent bortezomib
toxicity against TRAIL-treated cancer cells ([2]; in the presence of TRAIL): exhibited toxicity
PARP cleavage in macrophages ([3]; Western blot, FIG. 13b): did not induce
eIF2α phosphorylation in macrophages ([3]; Western blot, FIG. 13b): induced eIF2α phosphorylation in a similar fashion
p38 phosphorylation in macrophages ([3]; Western blot, FIG. 13b): did not induce
toxicity to macrophages ([3]; bone marrow-derived macrophages): nontoxic
blocking LPS-induced re-synthesis of IκBα ([3]; macrophages activated by LPS, FIG. 13c): equally effective
toxicity to human hepatocytes, compound alone or in combination with TRAIL ([1]; hepatocytes from normal donors): non-toxic
